# Assay: Viscosity of cyanoacrylate monomer, oligomer and formulation
# Type: physicochemical
# Conditions: monomer free of 4-methoxyphenol and SO2
# Description: In one embodiment, an alkyl cyanoacrylate monomer can be treated to form an alkyl cyanoacrylate oligomer with viscosity greater than the alkyl cyanoacrylate monomer. For example, an n-hexyl cyanoacrylate monomer can be treated to form an n-hexyl cyanoacrylate oligomer. Preferred oligomers result from photochemical treatment of an alkyl cyanoacrylate monomer, to produce a mixture that includes partially polymerized cyanoacrylate and that has a higher viscosity than the alkyl cyanoacrylate monomer from which it is formed. For example, the viscosity of the alkyl cyanoacrylate oligomer can advantageously be from about 10 centipoise to about 1000 centipoise and the viscosity of the alkyl cyanoacrylate monomer, from which the alkyl cyanoacrylate oligomer is formed, can be from about 2 centipoise to about 5 centipoise as measured by a rheometer. Typically, the oligomer will have a viscosity of from about 10 centipoise to about 50 centipoise.
# The purified n-hexyl cyanoacrylate monomer from Example 1, containing 4-methoxyphenol, was treated with Aldrich HQ & MEHQ inhibitor remover, Sigma-Aldrich, Inc., St. Louis, Mo., USA (2005-2006 Catalog #306320), to remove the p-methoxyphenol, followed by bubbling argon through the n-hexyl cyanoacrylate monomer to remove SO2. The viscosity of the purified n-hexyl cyanoacrylate, free of 4-methoxyphenol and SO2, was ˜4 centipoise. […]
substance,measurement,value
n-hexyl cyanoacrylate,viscosity,~4 centipoise
